In US20260096556A1, “AGRICULTURAL METHODS” (priority 2022, published 2026):

Test system: Phakopsora pachyrhizi
Experiment: Field trials: foliar spray on soybean plants, severity of infection from Phakopsora pachyrhizi
Format: in vivo
Details: for % control (% reduction of the area under the disease pressure curve): Brazil, soybean, 3 foliar applications, 75 g ai/ha
Experimental: Various compounds were formulated (a commercial EC250 formulation for prothioconazole, an SC100 formulation for compound X.04), diluted into a spray solution including an adjuvant, and applied to soybean plants in a foliar broadcast spray using a handheld horizontal boom sprayer. Three applications were made over the course of the growing season, starting approximately 45 days after crop emergence, with following applications at approximately 14 day intervals. Trials were conducted across five locations in Brazil.
Assessments of severity of infection from Phakopsora pachyrhizi were made at approximately weekly intervals, based on the percentage of leaf area covered by disease lesions. This is expressed in {Table B1} as a final % severity. The performance of the treatments were calculated as % reduction of the area under the disease pressure curve for the treated plots in the trial, based on assessments up to 28 days after the third application. Samples were taken from diseased leaves in the untreated plots and evaluated for the % population frequency of the F129L mutation that generates resistance to strobilurin fungicides.
Samples of leaves were taken from the untreated plots and DNA extracted from disease lesions. qPCR analysis was conducted to determine the frequency of F129L within the sampled pathogen population.

[1] = Trial A, F129L frequency in untreated 94.33%, untreated severity 97.50%
[2] = Trial B, F129L frequency in untreated 93.67%, untreated severity 83.10%
[3] = Trial C, F129L frequency in untreated 93.00%, untreated severity 96.80%
[4] = Trial D, F129L frequency in untreated 22.00%, untreated severity 74.2%
[5] = Trial E, F129L frequency in untreated 44.67%, untreated severity 95.00%

Row | Compound | % control (% reduction of the area under the disease pressure curve) [1] [%] | % control (% reduction of the area under the disease pressure curve) [2] [%] | % control (% reduction of the area under the disease pressure curve) [3] [%] | % control (% reduction of the area under the disease pressure curve) [4] [%] | % control (% reduction of the area under the disease pressure curve) [5] [%] | performance compared to prothioconazole and to a commercial standard containing prothioconazole and a standard strobilurin fungicide (trials with a high (>90%) frequency of F129L in the untreated population)
1 | OC(Cc1ccccc1Cl)(Cn1nc[nH]c1=S)C1(Cl)CC1 (centres unmarked) [prothioconazole, reference compound] | 72.66 | 28.86 | 63.89 | 72.53 | 67.30 | –
2 | CO/C=C(\Oc1cc(C2CCCCC2)ccc1C)C(=O)OC [compound X.04, methyl (Z)-2-(5-cyclohexyl-2-methyl-phenoxy)-3-methoxy-prop-2-enoate] | 91.00 | 45.50 | 95.46 | 71.39 | 63.48 | superior
